Data taken from PubChem BioAssay (NCI).
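A five-concentration, 48-hour dose response in 96-well plates underlies each endpoint, interpolated linearly between surrounding concentrations. TGI denotes the concentration required for complete inhibition of growth.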

Key:
Experiment in all cases: growth of human tumour cells (NCI), 48 h
786-0 renal = tested on: 786-0 renal
A498 renal = tested on: A498 renal
A549 NSCLC = tested on: A549 NSCLC
ACHN renal = tested on: ACHN renal
CAKI-1 renal = tested on: CAKI-1 renal
CCRF-CEM leukemia = tested on: CCRF-CEM leukemia
COLO 205 colon = tested on: COLO 205 colon
DMS 114 small cell lung = tested on: DMS 114 small cell lung
DMS 273 small cell lung = tested on: DMS 273 small cell lung
EKVX NSCLC = tested on: EKVX NSCLC
HCC-2998 colon = tested on: HCC-2998 colon
HCT-116 colon = tested on: HCT-116 colon
HCT-15 colon = tested on: HCT-15 colon
HL-60(TB) leukemia = tested on: HL-60(TB) leukemia
HOP-18 NSCLC = tested on: HOP-18 NSCLC
HOP-62 NSCLC = tested on: HOP-62 NSCLC
HOP-92 NSCLC = tested on: HOP-92 NSCLC
HT29 colon = tested on: HT29 colon
IGROV1 ovarian = tested on: IGROV1 ovarian
K-562 leukemia = tested on: K-562 leukemia
KM12 colon = tested on: KM12 colon
KM20L2 colon = tested on: KM20L2 colon
LOX IMVI melanoma = tested on: LOX IMVI melanoma
LXFL 529 NSCLC = tested on: LXFL 529 NSCLC
M14 melanoma = tested on: M14 melanoma
M19-MEL melanoma = tested on: M19-MEL melanoma
MALME-3M melanoma = tested on: MALME-3M melanoma
MOLT-4 leukemia = tested on: MOLT-4 leukemia
NCI-H226 lung = tested on: NCI-H226 lung
NCI-H23 lung = tested on: NCI-H23 lung
NCI-H460 lung = tested on: NCI-H460 lung
NCI-H522 lung = tested on: NCI-H522 lung
OVCAR-3 ovarian = tested on: OVCAR-3 ovarian
OVCAR-5 ovarian = tested on: OVCAR-5 ovarian
OVCAR-8 ovarian = tested on: OVCAR-8 ovarian
RPMI-8226 leukemia = tested on: RPMI-8226 leukemia
RXF 393 renal = tested on: RXF 393 renal
RXF-631 renal = tested on: RXF-631 renal
SF-268 CNS = tested on: SF-268 CNS
SF-295 CNS = tested on: SF-295 CNS
SF-539 CNS = tested on: SF-539 CNS
SK-MEL-2 melanoma = tested on: SK-MEL-2 melanoma
SK-MEL-28 melanoma = tested on: SK-MEL-28 melanoma
SK-MEL-5 melanoma = tested on: SK-MEL-5 melanoma
SK-OV-3 ovarian = tested on: SK-OV-3 ovarian
SN12C renal = tested on: SN12C renal
SNB-19 CNS = tested on: SNB-19 CNS
SNB-75 CNS = tested on: SNB-75 CNS
SNB-78 CNS = tested on: SNB-78 CNS
SR leukemia = tested on: SR leukemia
SW-620 colon = tested on: SW-620 colon
TK-10 renal = tested on: TK-10 renal
U251 CNS = tested on: U251 CNS
UACC-257 melanoma = tested on: UACC-257 melanoma
UACC-62 melanoma = tested on: UACC-62 melanoma
UO-31 renal = tested on: UO-31 renal
XF 498 CNS = tested on: XF 498 CNS
DLD-1 colon = tested on: DLD-1 colon

Work on `COc1ccc(C2CC(C)=Nc3c([nH]c(=S)[nH]c3=O)N2)cc1` (stereo not given) yielded a TGI (786-0 renal) of 31.2 µM, a TGI (A498 renal) of 36.9 µM and a TGI (A549 NSCLC) of 40.4 µM. For the same compound, the TGI (ACHN renal) was 36.1 µM, the TGI (CAKI-1 renal) was 65 µM and the TGI (CCRF-CEM leukemia) was 54.4 µM. The TGI (COLO 205 colon) was 32.7 µM, the TGI (DMS 114 small cell lung) was 38.8 µM and the TGI (DMS 273 small cell lung) was 35.9 µM. For the same compound, the TGI (EKVX NSCLC) was 50.2 µM, the TGI (HCC-2998 colon) was 30.3 µM and the TGI (HCT-116 colon) was 30.1 µM. It also gave a TGI (HCT-15 colon) of 33 µM, a TGI (HL-60(TB) leukemia) of 40.1 µM and a TGI (HOP-18 NSCLC) of over 100 µM. It also gave a TGI (HOP-62 NSCLC) of 68.5 µM, a TGI (HOP-92 NSCLC) of over 100 µM and a TGI (HT29 colon) of 47.3 µM. The TGI (IGROV1 ovarian) was 34.5 µM, the TGI (K-562 leukemia) was 34.4 µM and the TGI (KM12 colon) was 32 µM. The TGI (KM20L2 colon) was 31.7 µM, the TGI (LOX IMVI melanoma) was 34.4 µM and the TGI (LXFL 529 NSCLC) was 30.5 µM. It also gave a TGI (M14 melanoma) of 37.4 µM, a TGI (M19-MEL melanoma) of 31 µM and a TGI (MALME-3M melanoma) of over 100 µM. The TGI (MOLT-4 leukemia) was 67.4 µM, the TGI (NCI-H226 lung) was 44.6 µM and the TGI (NCI-H23 lung) was 55.6 µM. It also gave a TGI (NCI-H460 lung) of 33.3 µM, a TGI (NCI-H522 lung) of 30.1 µM and a TGI (OVCAR-3 ovarian) of 55.2 µM. It also gave a TGI (OVCAR-5 ovarian) of 56.7 µM, a TGI (OVCAR-8 ovarian) of 35.7 µM and a TGI (RPMI-8226 leukemia) of 50.3 µM. It also gave a TGI (RXF 393 renal) of 34.7 µM, a TGI (RXF-631 renal) of over 100 µM and a TGI (SF-268 CNS) of over 100 µM. The TGI (SF-295 CNS) was 48.5 µM, the TGI (SF-539 CNS) was 50.8 µM and the TGI (SK-MEL-2 melanoma) was over 100 µM. For the same compound, the TGI (SK-MEL-28 melanoma) was 60.5 µM, the TGI (SK-MEL-5 melanoma) was 32.5 µM and the TGI (SK-OV-3 ovarian) was 38.2 µM. For the same compound, the TGI (SN12C renal) was 36.7 µM, the TGI (SNB-19 CNS) was 37.5 µM and the TGI (SNB-75 CNS) was 70.1 µM. The TGI (SNB-78 CNS) was over 100 µM, the TGI (SR leukemia) was 65 µM and the TGI (SW-620 colon) was 19 µM. It also gave a TGI (TK-10 renal) of 58.1 µM, a TGI (U251 CNS) of 32.4 µM and a TGI (UACC-257 melanoma) of 33.9 µM. The TGI (UACC-62 melanoma) was 32.1 µM, the TGI (UO-31 renal) was 32.8 µM and the TGI (XF 498 CNS) was 59.4 µM.
`C[C@@H]1CC2(N=CCS2)[C@]2(O)O[C@@H]3C[C@@]4(C)[C@H](C[C@H]3O[C@@H]2O1)C[C@H]1O[C@]12[C@@H]4[C@H](O)C(=O)[C@]1(C)C(C3=CC(=O)OC3)CC[C@]21O` (stereo not given in full) gave a TGI (786-0 renal) of 0.0179 µM, a TGI (A498 renal) of 0.0386 µM and a TGI (ACHN renal) of 0.0149 µM. The TGI (CAKI-1 renal) was 0.0265 µM, the TGI (COLO 205 colon) was 0.0828 µM and the TGI (DLD-1 colon) was 0.0216 µM. For the same compound, the TGI (DMS 273 small cell lung) was 0.0214 µM, the TGI (HCC-2998 colon) was 0.0727 µM and the TGI (HCT-116 colon) was 0.0301 µM. For the same compound, the TGI (HL-60(TB) leukemia) was 0.0353 µM, the TGI (HOP-62 NSCLC) was 0.0211 µM and the TGI (HOP-92 NSCLC) was 0.08 µM. It also gave a TGI (IGROV1 ovarian) of 0.159 µM, a TGI (LOX IMVI melanoma) of 0.0239 µM and a TGI (LXFL 529 NSCLC) of 0.0166 µM. The TGI (M14 melanoma) was 0.0497 µM, the TGI (M19-MEL melanoma) was 0.0784 µM and the TGI (MALME-3M melanoma) was 0.0285 µM. It also gave a TGI (NCI-H226 lung) of 0.0746 µM, a TGI (RPMI-8226 leukemia) of 0.0578 µM and a TGI (RXF-631 renal) of 0.102 µM. It also gave a TGI (SF-268 CNS) of 0.0146 µM, a TGI (SF-539 CNS) of 0.0122 µM and a TGI (SK-MEL-2 melanoma) of 0.0749 µM. The TGI (SK-MEL-28 melanoma) was 0.089 µM, the TGI (SK-OV-3 ovarian) was 0.0778 µM and the TGI (SN12C renal) was 0.0202 µM. For the same compound, the TGI (SNB-75 CNS) was 0.0984 µM, the TGI (SNB-78 CNS) was 0.0495 µM and the TGI (SR leukemia) was 0.015 µM. The TGI (UACC-62 melanoma) was 0.0511 µM, the TGI (UO-31 renal) was 0.0755 µM and the TGI (XF 498 CNS) was 0.0336 µM.
